# Laboratory results: patent US20200255415A1, “TETRASUBSTITUTED ALKENE COMPOUNDS AND THEIR USE FOR THE TREATMENT OF BREAST CANCER” (Eisai R&D Management Co., Ltd., priority 2016, published 2020)
# Target: T1, human CYP3A4 (Homo sapiens, UniProt P08684)
# T1 construct: human CYP3A4 using liver microsomes (0.1 mg/mL); from tissue; host or cells: liver microsomes
# Test: Time-dependent inhibition assay (IC50 shift), liver microsomes
# Assay type: in vitro ADME
# Details: IC50 shift; human liver microsomes, 30 min pre-incubation, midazolam probe
# Protocol: One of these approaches uses multiple test compound concentrations at a single incubation time, e.g. the “IC50 shift” approach. In an IC50 shift experiment, the IC50 is determined for a CYP marker activity before and after the test compound has been incubated with enzyme and the co-factor nicotinamide adenine dinucleotide phosphate (NADPH) for a set preincubation time (Grimm et al, 2009).
# The IC50 shift approach was used to determine whether compounds are time-dependent inhibitors of human CYP3A4 using liver microsomes (0.1 mg/mL). A 30-minute pre-incubation time point was selected, where compounds (9 concentrations, 0 to 30 μmol/L) are incubated at 37° C. in presence and absence of 1 mmol/L NADPH. Following the pre-incubation period, 5 μmol/L midazolam (the probe substrate) was added and formation of hydroxymidazolam was measured by high-performance liquid chromatography-mass spectrometry (LC-MS/MS) analysis following a 5 minute incubation period. Any decrease in the formation of hydroxymidazolam, in peak area ratios to vehicle control, was used to calculate three IC50 values (0 min pre-incubation, 30 min pre-incubation with NADPH, and 30 min pre-incubation without NADPH). […] Assays were performed in duplicate, and mifepristone was used as positive control. In Table 3, “Yes” indicates a TDI shift greater than or equal to 3. “No” indicates a TDI shift greater than or equal to 1 and less than 3.
# The IC50 shift approach was also used to determine whether Compound 69 of PCT International Application Publication No. WO/2016/196346 is a time-dependent inhibitor of human CYP3A4 using liver microsomes. Similar to the experimental design described above, a 30-minute pre-incubation time point was selected. Minor variations to the method described above were that Compound 69 of PCT International Application Publication No. WO/2016/196346 was tested at 8 concentrations (0 to 10 μmol/L). Following the pre-incubation period, 3 μmol/L midazolam was added and formation of hydroxymidazolam was measured following a 2 minute incubation period. Since under these experimental conditions, the formation of hydroxymidazolam followed first order kinetics (considered as a linear process), these changes in assay design are not expected to impact the IC50 determinations. In parallel, the IC50 shift assay was also performed with 15.6 μmol/L testosterone (0.05 mg/mL liver microsomes, 10 minute incubation) as second probe substrate. Assays for both probe substrates were performed in triplicate, and mifepristone was used as positive control.
# T1 sequence (P08684 whole entry): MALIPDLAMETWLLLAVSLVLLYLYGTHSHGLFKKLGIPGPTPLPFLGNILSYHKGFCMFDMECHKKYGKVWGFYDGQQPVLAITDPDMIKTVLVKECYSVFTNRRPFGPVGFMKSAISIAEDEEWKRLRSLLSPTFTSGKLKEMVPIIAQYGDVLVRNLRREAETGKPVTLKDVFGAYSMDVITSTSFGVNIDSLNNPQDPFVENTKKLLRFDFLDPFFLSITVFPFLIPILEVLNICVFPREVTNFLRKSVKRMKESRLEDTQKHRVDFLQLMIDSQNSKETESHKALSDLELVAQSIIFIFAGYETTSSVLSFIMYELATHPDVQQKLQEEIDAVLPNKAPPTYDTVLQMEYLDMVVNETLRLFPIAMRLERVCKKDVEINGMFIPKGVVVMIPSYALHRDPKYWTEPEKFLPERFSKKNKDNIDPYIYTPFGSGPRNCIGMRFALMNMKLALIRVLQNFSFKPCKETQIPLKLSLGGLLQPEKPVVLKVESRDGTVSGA
row,SMILES,CYP3A4 TDI
1,"CN(C)C(=O)CCCNCCOc1ccc(/C(=C(/CC(F)(F)F)c2ccccc2)c2ccc3[nH]nc(F)c3c2)cn1 [Compound 2, (Z)-N,N-dimethyl-4-((2-((5-(4,4,4-trifluoro-1-(3-fluoro-1H-indazol-5-yl)-2-phenylbut-1-en-1-yl)pyridin-2-yl)oxy)ethyl)amino)butanamide]",Yes (“Yes” indicates a TDI shift greater than or equal to 3)
2,"O=C(/C=C/CNCCOc1ccc(/C(=C(/CC(F)(F)F)c2ccccc2)c2ccc3[nH]nc(F)c3c2)cn1)NCCO [Compound 7, (E)-N-(2-hydroxyethyl)-4-((2-((5-((Z)-4,4,4-trifluoro-1-(3-fluoro-1H-indazol-5-yl)-2-phenylbut-1-en-1-yl)pyridin-2-yl)oxy)ethyl)amino)but-2-enamide]",No (“No” indicates a TDI shift greater than or equal to 1 and less than 3)
3,"CNC(=O)/C=C/CNCCOc1ccc(/C(=C(/CC(F)(F)F)c2ccccc2)c2ccc3[nH]ncc3c2)cn1 [Compound 9, (E)-N-methyl-4-((2-((5-((Z)-4,4,4-trifluoro-1-(1H-indazol-5-yl)-2-phenylbut-1-en-1-yl)pyridin-2-yl)oxy)ethyl)amino)but-2-enamide]",Yes (“Yes” indicates a TDI shift greater than or equal to 3)
4,"CNC(=O)/C=C/CNCCOc1ccc(/C(=C(/CC(F)(F)F)c2ccccc2)c2ccc3[nH]ncc3c2)cc1 [Compound 10, (E)-N-methyl-4-((2-(4-((E)-4,4,4-trifluoro-1-(1H-indazol-5-yl)-2-phenylbut-1-en-1-yl)phenoxy)ethyl)amino)but-2-enamide]",Yes (“Yes” indicates a TDI shift greater than or equal to 3)
5,"Cl.O=C(/C=C/CNCCOc1ccc(/C(=C(/CC(F)(F)F)c2ccccc2)c2ccc3[nH]nc(F)c3c2)cc1)N1CCCC1 [Compound 13, (E)-1-(pyrrolidin-1-yl)-4-((2-(4-((E)-4,4,4-trifluoro-1-(3-fluoro-1H-indazol-5-yl)-2-phenylbut-1-en-1-yl)phenoxy)ethyl)amino)but-2-en-1-one]",No (“No” indicates a TDI shift greater than or equal to 1 and less than 3)
6,Cl.O=C(/C=C/CNCCOc1ccc(/C(=C(/CC(F)(F)F)c2ccccc2)c2ccc3[nH]nc(F)c3c2)cn1)N1CCCC1 [Compound 15],No (“No” indicates a TDI shift greater than or equal to 1 and less than 3)
7,"Cl.O=C(/C=C/CNCCOc1ccc(/C(=C(/CC(F)(F)F)c2ccccc2)c2ccc3[nH]ncc3c2)cn1)N1CCCC1 [Compound 16, (E)-1-(pyrrolidin-1-yl)-4-((2-((5-((Z)-4,4,4-trifluoro-1-(1H-indazol-5-yl)-2-phenylbut-1-en-1-yl)pyridin-2-yl)oxy)ethyl)amino)but-2-en-1-one]",Yes (“Yes” indicates a TDI shift greater than or equal to 3)
8,Cl.O=C(/C=C/CNCCOc1ccc(/C(=C(/CC(F)(F)F)c2ccccc2)c2ccc3[nH]nc(F)c3c2)cc1)N1CCOCC1 [Compound 17],No (“No” indicates a TDI shift greater than or equal to 1 and less than 3)
9,Cl.[2H]C([2H])([2H])N(C(=O)/C=C/CNCCOc1ccc(/C(=C(/CC(F)(F)F)c2ccccc2)c2ccc3[nH]ncc3c2)cc1)C([2H])([2H])[2H] [Compound 23],Yes (“Yes” indicates a TDI shift greater than or equal to 3)
10,"CC/C(=C(/c1ccc(OCCNC/C=C/C(=O)NC)cc1)c1ccc2[nH]nc(F)c2c1)c1ccccc1.Cl [Compound 26, (E)-4-((2-(4-((E)-1-(3-fluoro-1H-indazol-5-yl)-2-phenylbut-1-en-1-yl)phenoxy)ethyl)amino)-N-methylbut-2-enamide]",No (“No” indicates a TDI shift greater than or equal to 1 and less than 3)
11,"CC/C(=C(/c1ccc(OCCNC/C=C/C(=O)NC)nc1)c1ccc2[nH]nc(F)c2c1)c1ccccc1.Cl [Compound 27, (E)-4-((2-((5-((Z)-1-(3-fluoro-1H-indazol-5-yl)-2-phenylbut-1-en-1-yl)pyridin-2-yl)oxy)ethyl)amino)-N-methylbut-2-enamide]",Yes (“Yes” indicates a TDI shift greater than or equal to 3)
